Experimental data taken from PMC9128629, “Identification and Characterization of Bifunctional Drimenol Synthases of Marine Bacterial Origin” (ACS Chemical Biology, 2022).

Columns and labels:
Format in all cases: biochemical
[1] = molecular target: T1, AsDMS (Aquimarina spongiae drimenol synthase) (Aquimarina spongiae, UniProt A0A1M6CXF0); assay: GC-MS detection of drimenol; details: 50 mM Tris-HCl pH 8.0, 2 mM MgCl2, 1 mM DTT, 100 μM FPP, 200 nM enzyme, 30 °C, 1 h, with or without alkaline phosphatase
T1 construct: gene SAMN04488508_102320

[2] = molecular target: T2, AsDMS (Aquimarina spongiae drimenol synthase) (Aquimarina spongiae, UniProt A0A1M6CXF0, D182N/K183D, form not given); assay: GC-MS detection of drimenol; details: 50 mM Tris-HCl pH 8.0, 2 mM MgCl2, 1 mM DTT, 100 μM FPP, 200 nM enzyme, 30 °C, 1 h, with or without alkaline phosphatase
T2 construct: gene SAMN04488508_102320

[3] = molecular target: T1, AsDMS (Aquimarina spongiae drimenol synthase); assay: GC-MS detection of drimenol; details: 50 mM Tris-HCl pH 8.0, 2 mM MgCl2, 1 mM DTT, 100 μM FPP, 200 nM enzyme, 30 °C, 1 h, with or without alkaline phosphatase; remark: listed apart in the source
[4] = molecular target: T1, AsDMS (Aquimarina spongiae drimenol synthase); assay: GC-MS quantification of drimenol, Michaelis-Menten fit; details: 50 mM Tris-HCl pH 8.0, 2 mM MgCl2, 1 mM DTT, 0-120 μM FPP, 200 nM enzyme, 30 °C
FeDMS = molecular target: T3, FeDMS (Flavivirga eckloniae, UniProt A0A2K9PVZ9); assay: GC-MS detection of drimenol; details: 50 mM Tris-HCl pH 8.0, 2 mM MgCl2, 1 mM DTT, 100 μM FPP, 500 nM enzyme, 30 °C, 1 h, with or without alkaline phosphatase
T3 construct: gene C1H87_21965
T3 sequence (A0A2K9PVZ9 entry or part of it): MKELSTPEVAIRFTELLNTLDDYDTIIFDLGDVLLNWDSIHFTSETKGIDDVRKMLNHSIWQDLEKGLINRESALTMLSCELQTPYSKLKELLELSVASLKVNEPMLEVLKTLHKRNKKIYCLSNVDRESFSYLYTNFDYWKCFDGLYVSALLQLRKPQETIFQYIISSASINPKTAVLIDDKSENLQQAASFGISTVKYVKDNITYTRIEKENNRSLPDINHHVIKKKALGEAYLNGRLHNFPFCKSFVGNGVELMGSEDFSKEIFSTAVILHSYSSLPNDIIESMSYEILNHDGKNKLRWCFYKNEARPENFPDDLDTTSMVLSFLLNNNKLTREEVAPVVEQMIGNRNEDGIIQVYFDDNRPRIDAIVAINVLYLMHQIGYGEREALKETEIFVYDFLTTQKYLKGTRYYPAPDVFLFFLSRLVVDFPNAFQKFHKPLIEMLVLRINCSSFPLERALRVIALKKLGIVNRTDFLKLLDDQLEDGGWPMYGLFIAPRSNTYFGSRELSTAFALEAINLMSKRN

T1 sequence (A0A1M6CXF0 entry or part of it): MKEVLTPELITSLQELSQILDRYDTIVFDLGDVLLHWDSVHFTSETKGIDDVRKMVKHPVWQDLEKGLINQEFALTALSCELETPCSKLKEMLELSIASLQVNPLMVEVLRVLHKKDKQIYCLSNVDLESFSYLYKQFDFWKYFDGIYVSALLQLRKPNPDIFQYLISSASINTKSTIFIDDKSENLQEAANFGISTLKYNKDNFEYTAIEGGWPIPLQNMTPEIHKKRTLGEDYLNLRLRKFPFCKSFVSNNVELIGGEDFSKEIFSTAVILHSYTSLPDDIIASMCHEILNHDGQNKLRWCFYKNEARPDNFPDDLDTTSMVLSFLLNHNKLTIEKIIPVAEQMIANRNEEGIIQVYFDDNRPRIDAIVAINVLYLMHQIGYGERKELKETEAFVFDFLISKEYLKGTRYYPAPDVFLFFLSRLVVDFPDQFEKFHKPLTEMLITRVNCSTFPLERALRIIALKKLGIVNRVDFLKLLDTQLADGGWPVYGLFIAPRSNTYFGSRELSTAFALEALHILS
T2 sequence (A0A1M6CXF0 entry or part of it D182N/K183D, form open): as the sequence (A0A1M6CXF0 entry or part of it) above, with D182N, K183D counted along it

GC-MS detection of drimenol [2]: a double mutant D196N/K197D
Km [4]: 9.59 ± 2.15 µM
SMILES: CC(C)=CCC/C(C)=C/CC/C(C)=C/CO[P@@](=O)(O)OP(=O)(O)O [FPP]
GC-MS detection of drimenol [1]: exhibited almost equipotent activity to that of the WT
GC-MS detection of drimenol [3]: The D196N mutant displayed a significant decrease in activity
GC-MS detection of drimenol (FeDMS): five proteins (AsDMS, A474DMS, A119DMS, FeDMS, and RbDMS) with FPP yielded a single compound
